Source: patent US20210316003A1 (Immunomedics, Inc., priority 2020, published 2021)

Key:
[1] = system: patients with metastatic urothelial cancer (mUC); conditions: 10 mg/kg, cited from earlier work
patients with mSCLC = assay: Phase I/II trial (NCT01631552), mSCLC: safety and tolerability; conditions: N = 53
Description: Doses of 8 or 10 mg/kg were given on days 1 and 8 of a 21-day cycle, with contingencies to delay (maximum of 2 weeks). Toxicities were managed by supportive hematopoietic growth-factor therapy for blood cell reduction, dose delays and/or modification as specified in the protocol (e.g., 25% of prior dose), or by standard medical practice. Treatment was continued until disease progression, initiation of alternative anticancer therapy, unacceptable toxicity, or withdrawal of consent.
Safety evaluations were conducted during scheduled visits or more frequently if warranted.
Statistical Analyses—The data included in the analyses were derived from patients enrolled from November 2013 to June 2016, with follow-up through Jan. […] The frequency and severity of adverse events (AEs) were defined by MedDRA Preferred Term and System Organ Class (SOC) version 10, with severity assessed by NCI-CTCAE v4.03.

[2] = system: patients with metastatic TNBC; assay: Phase I/II trial (NCT01631552), metastatic TNBC: efficacy by RECIST 1.1; format: in vivo, human
From the text: Patients with relapsed/refractory TNBC who had previously failed at at least one prior line of therapy were enrolled in a single-arm, multicenter trial (Bardia et al., 2019, N Engl J Med 380:741-51). The present study reports on 108 patients who had failed at least two prior lines of therapy (median three prior therapies) (Bardia et al., 2019, N Engl J Med 380:741-51). […] For severe treatment-related adverse events, a 25% dose reduction was allowed after the first occurrence, 50% after the second and discontinuation after the third. Of the 108 patients, 107 were female and 1 was male, with a median age of 55. Prior therapies included treatment with taxanes (98%), anthracyclines (86%), platinum agents (69%), gemcitabine (55%), eribulin (45%) and checkpoint inhibitors (17%). Tumor staging was performed by computed tomography (CT) and MRI at baseline, followed up at 8 week intervals from the start of treatment until disease progression.

TNBC xenografts = conditions: nude mice bearing TNBC xenografts, independent of BRCA1/2 mutation status; cited from earlier work

Substance: sacituzumab govitecan
- Complete responses (CR), number ([1]; 35 mUC patients): 2
- Confirmed partial responses (PR), number ([1]; 35 mUC patients): 6
- Objective response rate (ORR) ([1]; 35 mUC patients): 29%
- PR pending confirmation, number ([1]; 35 mUC patients): 2
- Treated patients with a reduction in tumor size ([1]; 35 mUC patients): Seventy-four
- ORR in patients with liver metastases ([1]; mUC): 25%
- Treatment-related deaths (patients with mSCLC): No treatment-related deaths were observed
- Response rate among patients who had failed previous checkpoint inhibitor therapy [2]: 44%
- Complete responses (CR) ([2]; 10 mg/kg, N = 108): 2.8%
- Median overall survival ([2]; 10 mg/kg, N = 108): 13.0 months
- Median progression-free survival ([2]; 10 mg/kg, N = 108): 5.5 months
- Estimated probability that a patient would exhibit a response at 6 months ([2]; 36 responders): 59.7%
- Estimated probability that a patient would exhibit a response at 12 months ([2]; 36 responders): 27.0%
- Median duration of response ([2]; 36 responders): 7.7 months
- Median time to response ([2]; 36 responders): 2.0 months
- Patients with long-term responses of more than 12 months ([2]; at data cutoff): 6
- Response rate (CR+PR) ([2]; ≥2 prior lines, 10 mg/kg days 1 and 8 of 21 day cycle, N = 108): 33.3%
- Tumor growth in combination with olaparib, rucaparib and talazoparib (TNBC xenografts): Synthetic lethality and synergistic inhibition of tumor growth
